Experimental data reported in patent publication US11312721B2 (priority 2015, dated 2022).

molecular target: T1, α5β3γ2 GABAA receptors (Ltk cells) (Homo sapiens, UniProt P18507+P31644); experiment: Binding activity on GABAAR: inhibition of [3H]Ro15-1788 binding; conditions: not given
T1 construct: membranes
Method: Tissue culture and Membrane Preparation: The binding was performed on Ltk cells stably expressing GABAA receptors: α1β1γ2, α2β3γ2, α3β3γ2 and α5β3γ2 (provided by Merck Co., NJ, USA). Cells were seeded in 100 mm culture plates in DMEM/F12 medium containing 10% serum and antibiotics in 5% CO2 and allowed to grow for 1-2 days. GABAAR expression was then induced by dexamethasone as follows: 0.5 μM for 1 day for α5 containing and 2 μM for 3 days for α1, α2 and α3 containing GABAARs. After induction, cells were collected by scraping into Dulbecco's Phosphate buffered saline (DPBS, pH 7.4, Invitrogen, Carlsbad, Calif., USA) and centrifuged at 150×g for 10 min. The pellet was washed twice by re-suspension and centrifugation. The cell pellets from at least 5 different preps were combined, suspended in the binding assay buffer (50 mM KH2PO4; 1 mM EDTA; 0.2 M KCl, pH 7.4) and membranes prepared by sonication (3-5 times, 30 sec) using Branson Sonifier 150 (G. Heinmann, Germany). Protein content was determined using BCA assay (Bio-Rad Labs, Reinach, Switzerland) with Bovine Serum Albumin (Sigma Aldrich, St. Louis, Mo., USA) as the standard. Aliquots were prepared and stored at −20° C. for further use in binding assays.
Ligand Binding: Saturation binding curves were obtained by incubating membranes with increasing concentrations (0.01-8 nM) of [^3H]Ro15-1788 (Flumazepil, 75-85 Ci/mmol, PerkinElmer, MA, USA), with nonspecific binding measured in the presence of 10 μM diazepam.
All binding assays were performed for 1 h at 4° C. in assay buffer. The total assay volume was 0.5 ml containing 0.2 mg/ml protein for α5 and 0.4 mg/ml for α1, α2, and α3 containing GABAAR membranes. Incubations were terminated by filtration through GF/B filters using a 24-Cell Harvestor (Brandel, Gaithersburg, Md., USA) followed by 3 washes with ice-cold assay buffer. Filters were transferred to scintillation vials, 5 ml scintillation liquid added, vortex-mixed and kept in dark. Next day, radioactivity was obtained using a scintillation counter (Beckman Coulter, Brea, Calif., USA). All assays were performed in triplicate.
Data Analyses: Saturation and inhibition curves were obtained using GraphPad Prism software (GraphPad Software, Inc., CA, USA).

T1 sequence (P31644 32-462): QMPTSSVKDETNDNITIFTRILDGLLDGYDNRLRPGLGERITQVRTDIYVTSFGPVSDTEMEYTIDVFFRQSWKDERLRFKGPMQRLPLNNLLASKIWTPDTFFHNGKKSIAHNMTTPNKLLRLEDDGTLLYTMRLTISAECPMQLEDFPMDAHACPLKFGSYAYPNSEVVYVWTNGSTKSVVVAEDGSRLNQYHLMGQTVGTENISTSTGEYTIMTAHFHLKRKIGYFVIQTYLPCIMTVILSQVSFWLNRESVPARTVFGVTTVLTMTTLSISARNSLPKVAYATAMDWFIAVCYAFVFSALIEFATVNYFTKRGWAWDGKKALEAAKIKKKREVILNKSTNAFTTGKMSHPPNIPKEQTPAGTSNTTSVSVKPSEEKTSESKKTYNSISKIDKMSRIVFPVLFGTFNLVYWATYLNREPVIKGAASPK
T1 sequence (P28472 26-473 partner): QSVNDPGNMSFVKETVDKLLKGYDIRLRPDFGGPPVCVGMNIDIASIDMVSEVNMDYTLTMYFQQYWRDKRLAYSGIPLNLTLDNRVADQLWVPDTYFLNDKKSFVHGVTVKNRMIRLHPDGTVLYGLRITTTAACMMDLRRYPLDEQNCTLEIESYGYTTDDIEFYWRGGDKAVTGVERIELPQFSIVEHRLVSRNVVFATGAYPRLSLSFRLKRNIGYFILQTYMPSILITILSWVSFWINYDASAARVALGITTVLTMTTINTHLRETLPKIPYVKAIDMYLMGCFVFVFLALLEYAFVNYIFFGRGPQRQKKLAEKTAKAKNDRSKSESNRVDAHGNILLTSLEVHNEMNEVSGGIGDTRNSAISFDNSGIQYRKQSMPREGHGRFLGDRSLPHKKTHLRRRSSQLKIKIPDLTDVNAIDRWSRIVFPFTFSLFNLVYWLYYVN
T1 sequence (P18507 40-475): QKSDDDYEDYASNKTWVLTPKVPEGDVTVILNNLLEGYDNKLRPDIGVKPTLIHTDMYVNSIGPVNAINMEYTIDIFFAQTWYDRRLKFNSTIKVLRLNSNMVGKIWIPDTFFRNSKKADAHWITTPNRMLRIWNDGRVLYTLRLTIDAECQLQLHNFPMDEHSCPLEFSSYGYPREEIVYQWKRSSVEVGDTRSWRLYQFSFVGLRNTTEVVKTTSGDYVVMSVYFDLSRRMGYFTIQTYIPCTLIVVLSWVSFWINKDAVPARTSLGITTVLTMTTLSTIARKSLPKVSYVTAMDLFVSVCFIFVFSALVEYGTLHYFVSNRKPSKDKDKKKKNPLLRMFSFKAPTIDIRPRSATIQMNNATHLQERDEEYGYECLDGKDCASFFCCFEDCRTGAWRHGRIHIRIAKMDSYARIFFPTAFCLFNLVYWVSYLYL

`CCOC(=O)c1ncn2c1Cc1c(Cc3ccc(F)cc3)nnn1-c1cc(F)ccc1-2` [Compound 46] and `CCOC(=O)c1ncn2c1Cc1c(Cc3ccccc3)nnn1-c1cc(C)ccc1-2` [Compound 101] cannot be ordered by Ki: < 99 nM for the first, < 99 nM for the second.

`CCOC(=O)c1ncn2c1Cc1c(Cc3ccccc3Cl)nnn1-c1cc(C)ccc1-2` [Compound 54] and `CCOC(=O)c1ncn2c1Cc1c(C)nnn1-c1cc(C)ccc1-2` [Compound 102] cannot be ordered by Ki: < 99 nM for the first, < 99 nM for the second.

`Cc1cccc(C)c1OCc1nnc2n1Cc1c(-c3noc(C(C)C)n3)ncn1-c1ccc(F)cc1-2` [Compound 190] and `COCc1nnc2n1Cc1c(-c3nc(C(C)C)no3)ncn1-c1ccc(Cl)cc1-2` [Compound 206] cannot be ordered by Ki: < 99 nM for the first, < 99 nM for the second.

`N#Cc1ncn2c1Cn1c(COc3ccccc3)nnc1-c1cc(Cl)ccc1-2` [Compound 197] and `C#Cc1ncn2c1Cn1c(COc3ccccc3)nnc1-c1cc(OC)ccc1-2` [Compound 236] cannot be ordered by Ki: < 99 nM for the first, < 99 nM for the second.

`COc1ccc2c(c1)-n1nnc(Cc3ccccc3Cl)c1Cc1c(C#N)ncn1-2` [Compound 208] and `COc1ccc2c(c1)-n1nnc(Cc3cccc(Cl)c3)c1Cc1c(C#N)ncn1-2` [Compound 209] cannot be ordered by Ki: < 99 nM for the first, < 99 nM for the second.

`CCOCc1nnc2n1Cc1c(Br)ncn1-c1ccc(Cl)cc1-2` [Compound 216] and `COCc1nnc2n1Cc1c(Br)ncn1-c1ccc(Cl)cc1-2` [Compound 217] cannot be ordered by Ki: < 99 nM for the first, < 99 nM for the second.

`C#Cc1ncn2c1Cc1c(C(=O)c3ccc(F)cc3)nnn1-c1cc(OC)ccc1-2` [Compound 218] and `COc1ccc2c(c1)-n1nnc(COc3ccccc3F)c1Cc1c(C#N)ncn1-2` [Compound 223] cannot be ordered by Ki: < 99 nM for the first, < 99 nM for the second.

`N#Cc1ncn2c1Cc1c(COc3cccc(F)c3)nnn1-c1cc(Cl)ccc1-2` [Compound 227] and `C#Cc1ncn2c1Cn1c(COc3cccnc3)nnc1-c1cc(OC)ccc1-2` [Compound 241] cannot be ordered by Ki: < 99 nM for the first, < 99 nM for the second.

`CC(C)c1nc(-c2ncn3c2Cc2c(C(=O)c4ccc(F)cc4)nnn2-c2ccc(F)cc2-3)no1` [Compound 230] and `COc1ccc2c(c1)-n1nnc(C)c1Cc1c(-c3nc(C(C)C)no3)ncn1-2` [Compound 277] cannot be ordered by Ki: < 99 nM for the first, < 99 nM for the second.

`COc1ccc2c(c1)-c1nnc(COc3ccccc3)n1Cc1c(Br)ncn1-2` [Compound 232] and `COc1ccc2c(c1)-c1nnc(COc3cccnc3)n1Cc1c(Br)ncn1-2` [Compound 235] cannot be ordered by Ki: < 99 nM for the first, < 99 nM for the second.

`COCc1nnc2n1Cc1c(-c3cc(C)no3)ncn1-c1ccc(Cl)cc1-2` [Compound 233] and `COCc1nnc2n1Cc1c(-c3nc(C)co3)ncn1-c1ccc(Cl)cc1-2` [Compound 244] cannot be ordered by Ki: < 99 nM for the first, < 99 nM for the second.

Going from `C#CCNC(=O)c1ncn2c1Cn1c(COC)nnc1-c1cc(Cl)ccc1-2` [Compound 234] to `C#Cc1ncn2c1Cn1c(COCC)nnc1-c1cc(Cl)ccc1-2` [Compound 261], the Ki falls from > 1000 nM to < 99 nM.

`COCc1nnc2n1Cc1c(C3=NC(c4ccccc4)CO3)ncn1-c1ccc(Cl)cc1-2` (stereo not drawn) [Compound 242] and `COCc1nnc2n1Cc1c(C3=N[C@H](c4ccccc4)CO3)ncn1-c1ccc(Cl)cc1-2` [Compound 263] cannot be ordered by Ki: < 99 nM for the first, < 99 nM for the second.

`COCc1nnc2n1Cc1c(-c3nc(-c4ccccc4)co3)ncn1-c1ccc(Cl)cc1-2` [Compound 245] and `CC(C)OCc1nnc2n1Cc1c(-c3nc(-c4ccccc4)co3)ncn1-c1ccc(Cl)cc1-2` [Compound 276] cannot be ordered by Ki: < 99 nM for the first, < 99 nM for the second.

`COc1ccc2c(c1)-n1nncc1Cc1c(-c3nc(C)no3)ncn1-2` [Compound 258] and `COc1ccc2c(c1)-n1nncc1Cc1c(C3=N[C@H](C)CO3)ncn1-2` [Compound 291] cannot be ordered by Ki: < 99 nM for the first, < 99 nM for the second.

`CCOCc1nnc2n1Cc1c(C3=NC(C)CO3)ncn1-c1ccc(Cl)cc1-2` (stereo not drawn) [Compound 259] and `COCc1nnc2n1Cc1c(C3=N[C@H](C)CO3)ncn1-c1ccc(Cl)cc1-2` [Compound 282] cannot be ordered by Ki: < 99 nM for the first, < 99 nM for the second.

`CCOCc1nnc2n1Cc1c(C3=NC(c4ccccc4)CO3)ncn1-c1ccc(Cl)cc1-2` (stereo not drawn) [Compound 260] and `CCOCc1nnc2n1Cc1c(C3=N[C@@H](c4ccccc4)CO3)ncn1-c1ccc(Cl)cc1-2` [Compound 275] cannot be ordered by Ki: < 99 nM for the first, < 99 nM for the second.

`CC(C)OCc1nnc2n1Cc1c(C3=N[C@H](c4ccccc4)CO3)ncn1-c1ccc(Cl)cc1-2` [Compound 268] and `CC(C)OCc1nnc2n1Cc1c(C3=N[C@@H](c4ccccc4)CO3)ncn1-c1ccc(Cl)cc1-2` [Compound 270] cannot be ordered by Ki: < 99 nM for the first, < 99 nM for the second.

`C#Cc1ccc2c(c1)-c1nnc(COC)n1Cc1c(C3=N[C@H](CC(C)C)CO3)ncn1-2` [Compound 280] and `C#Cc1ccc2c(c1)-c1nnc(COC)n1Cc1c(C3=N[C@@H](c4ccccc4)CO3)ncn1-2` [Compound 301] cannot be ordered by Ki: < 99 nM for the first, < 99 nM for the second.

`COCc1nnc2n1Cc1c(C#Cc3ccccc3)ncn1-c1ccc(Cl)cc1-2` [Compound 285] and `C#Cc1ccc2c(c1)-c1nnc(COC)n1Cc1c(-c3nc(-c4ccccc4)co3)ncn1-2` [Compound 302] cannot be ordered by Ki: < 99 nM for the first, < 99 nM for the second.

`C#Cc1ncn2c1Cn1c(COC(C)C)nnc1-c1cc(Cl)ccc1-2` [Compound 288] and `COCc1nnc2n1Cc1c(C3=NC[C@@H](C)O3)ncn1-c1ccc(Cl)cc1-2` [Compound 294] cannot be ordered by Ki: < 99 nM for the first, < 99 nM for the second.

`COc1ccc2c(c1)-n1nncc1Cc1c(C3=N[C@@H](c4ccccc4)CO3)ncn1-2` [Compound 289] and `FC(F)(F)COCc1nnc2n1Cc1c(C3=N[C@@H](c4ccccc4)CO3)ncn1-c1ccc(Cl)cc1-2` [Compound 304] cannot be ordered by Ki: < 99 nM for the first, < 99 nM for the second.

`COCc1nnc2n1Cc1c(C3=NC[C@H](C)O3)ncn1-c1ccc(Cl)cc1-2` [Compound 295] and `COCc1nnc2n1Cc1c(-c3ncc(C)o3)ncn1-c1ccc(Cl)cc1-2` [Compound 296] cannot be ordered by Ki: < 99 nM for the first, < 99 nM for the second.

molecular target: T2, GABAA receptors (α5β2γ2) (Homo sapiens, UniProt P18507+P31644); experiment: Positive allosteric modulator activity: potentiation of EC20 GABA current in oocytes; assay type: cell-based; conditions: read-out: GABA α5 functional potentiation
T2 construct: expressed in transfected cells
T2 sequence (P31644 32-462): as the sequence (P31644 32-462) above
T2 sequence (P47870 25-512 partner limits assumed): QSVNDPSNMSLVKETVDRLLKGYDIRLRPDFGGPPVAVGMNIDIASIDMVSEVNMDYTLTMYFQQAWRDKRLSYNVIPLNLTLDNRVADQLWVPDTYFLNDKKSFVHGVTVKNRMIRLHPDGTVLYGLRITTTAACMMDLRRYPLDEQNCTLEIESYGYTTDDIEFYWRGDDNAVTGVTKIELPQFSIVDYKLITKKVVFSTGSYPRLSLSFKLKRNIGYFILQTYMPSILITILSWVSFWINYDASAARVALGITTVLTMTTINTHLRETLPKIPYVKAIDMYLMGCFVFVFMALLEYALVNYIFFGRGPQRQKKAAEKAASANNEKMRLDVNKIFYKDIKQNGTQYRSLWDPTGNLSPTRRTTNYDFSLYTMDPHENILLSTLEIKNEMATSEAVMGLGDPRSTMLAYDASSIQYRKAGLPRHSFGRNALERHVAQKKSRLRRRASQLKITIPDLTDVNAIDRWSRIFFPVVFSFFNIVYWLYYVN
T2 sequence (P18507 40-475): as the sequence (P18507 40-475) above
Method: On day 1, 1 ng/32 nL of GABAA α5β2γ2 cDNA was injected into one oocyte. Test starts on day 2. The cDNA injected to the oocytes was a mix of alpha, beta and gamma, their ratio is 1:1:10 (by weight) and the total weight of the mixed 3 subunits to be injected in one oocyte was 1 ng in 32 nl volume. The injected oocytes can also be tested on day 3. In such case, the cDNA amount injected to the oocytes should be reduced by 20%.
1). 8 oocytes were placed in 8 chambers of OpusXpress and superfused with Modified Barth's Saline (MBS) at 3 mL/min. Glass electrodes back-filled with 3M KCl (0.5-3 megaohms) were used.
1). Repeat the above steps 1), 2) and 3) in the control test.
2). […] Divide Itest by IGABA to obtain potentiation (%).
3). Discard all tested oocytes, new oocytes were used and the above steps 1) and 2) were repeated to test second concentration of the same compound. Each oocyte was used for only one concentration test for a single test compound. The steps were repeated for other test compounds.

`CCOC(=O)c1ncn2c1Cc1c(C)nnn1-c1cc(OC)ccc1-2` [Compound 1] and `CCOC(=O)c1ncn2c1Cc1c(C)nnn1-c1cc(F)ccc1-2` [Compound 2] fall in the same range of activation at 0.1 µM: 20 to 49% for the first, 20 to 49% for the second.

`CCOC(=O)c1ncn2c1Cc1c(COc3ccccc3)nnn1-c1cc(OC)ccc1-2` [Compound 9] and `CCOC(=O)c1ncn2c1Cc1c(COc3cccc(OC)c3)nnn1-c1cc(OC)ccc1-2` [Compound 11] fall in the same range of activation at 0.1 µM: 20 to 49% for the first, 20 to 49% for the second.

`CCOC(=O)c1ncn2c1Cc1c(Cc3ccc(Cl)cc3)nnn1-c1cc(F)ccc1-2` [Compound 45] and `CCOC(=O)c1ncn2c1Cc1c(Cc3cccnc3)nnn1-c1cc(C)ccc1-2` [Compound 111] fall in the same range of activation at 0.1 µM: 20 to 49% for the first, 20 to 49% for the second.

First: CCOC(=O)c1ncn2c1Cc1c(CN3CCCC3)nnn1-c1cc(OC)ccc1-2 [Compound 48]
Second: Cc1nnn2c1Cc1c(C(=O)OCC(C)(C)C)ncn1-c1ccc(F)cc1-2 [Compound 113]
The activation at 0.1 µM of the first is lower: 20 to 49% for the first, > 50% for the second.

`CCOC(=O)c1ncn2c1Cn1c(COc3ccccc3)nnc1-c1cc(OC)ccc1-2` [Compound 55] and `COc1ccc2c(c1)-c1nnc(COc3ccccc3)n1Cc1c(C(=O)OC(C)C)ncn1-2` [Compound 120] fall in the same range of activation at 0.1 µM: 20 to 49% for the first, 20 to 49% for the second.

`Cc1noc(-c2ncn3c2Cc2c(Cc4ccccc4)nnn2-c2cc(F)ccc2-3)n1` [Compound 109] and `Cc1noc(-c2ncn3c2Cc2c(C)nnn2-c2cc(F)ccc2-3)n1` [Compound 110] fall in the same range of activation at 0.1 µM: 20 to 49% for the first, 20 to 49% for the second.

Compared with `Cc1nnn2c1Cc1c(C(=O)OCC(F)(F)F)ncn1-c1ccc(F)cc1-2` [Compound 114], `Cc1noc(-c2ncn3c2Cc2c(C)nnn2-c2ccccc2-3)n1` [Compound 126] is lower in activation at 0.1 µM: > 50% for the first, 20 to 49% for the second.

`Cc1nc(-c2ncn3c2Cc2c(C)nnn2-c2ccccc2-3)no1` [Compound 127] and `COCc1nnc2n1Cc1c(-c3nc(C)no3)ncn1-c1ccc(OC)cc1-2` [Compound 128] fall in the same range of activation at 0.1 µM: 20 to 49% for the first, 20 to 49% for the second.

`COCc1nnc2n1Cc1c(-c3nc(C(C)C)no3)ncn1-c1ccc(OC)cc1-2` [Compound 130] showed an activation at 0.1 µM of 20 to 49%.
